According to patent publication US9861635B2, “Macrocycles as kinase inhibitors” (Merck Patent GmbH, priority 2013, dated 2018):

molecular target: T1, GCN2 (Homo sapiens, UniProt Q9P2K8); assay: GCN2 enzyme assay (TR-FRET Lanthascreen, GFP-eIF2alpha substrate); type: biochemical; conditions: 10 μM ATP, 80 nM GFP-eIF2a, 30 nM GCN2
Description: GCN2: Assay Principle & Conditions
This assay can quantificate the activity of the serin kinase GCN2 (general control non-derepressible-2).
This kinase is involved in the stress metabolism of cells. It is activated upon starvation (amino acid depletion). Its natural substrate is eIF2a (eukaryotic initiation factor 2 alpha subunit), a translation factor, which gets activated (phosphorylated) by GCN2 in case of an amino acid bottleneck in the cells. This in turn leads to a halt of the protein synthesis. Inhibition of GCN2 results in stopping this mechanism: The cell can not stop protein production upon “starvation” stress.
The assay is run in two steps: the enzymatic reaction and the detection step. In the first step GCN2 is incubated with 10 μM ATP and 80 nM of the GFP-labelled substrate eIF2alpha at room temperature.
The enzymatic reaction is stopped by addition of EDTA. The amount of phosphorylated eIF2alpha is determined by TR-FRET (Lanthascreen): A complex is formed consisting of antibody and GFP labelled phospho-eIF2a, which allows a FRET upon excitation at 340 nm.
The GCN2-activity is directly proportional to the ratio of fluorescence units at the emission wavelength 520 nm (phosphopeptide-sensitive wavelength=emission of GFP) to the units at 495 nm (reference wavelength=emission of Terbium-chelate).
Final Concentrations in the Enzymatic Reaction

T1 sequence (Q9P2K8 whole entry): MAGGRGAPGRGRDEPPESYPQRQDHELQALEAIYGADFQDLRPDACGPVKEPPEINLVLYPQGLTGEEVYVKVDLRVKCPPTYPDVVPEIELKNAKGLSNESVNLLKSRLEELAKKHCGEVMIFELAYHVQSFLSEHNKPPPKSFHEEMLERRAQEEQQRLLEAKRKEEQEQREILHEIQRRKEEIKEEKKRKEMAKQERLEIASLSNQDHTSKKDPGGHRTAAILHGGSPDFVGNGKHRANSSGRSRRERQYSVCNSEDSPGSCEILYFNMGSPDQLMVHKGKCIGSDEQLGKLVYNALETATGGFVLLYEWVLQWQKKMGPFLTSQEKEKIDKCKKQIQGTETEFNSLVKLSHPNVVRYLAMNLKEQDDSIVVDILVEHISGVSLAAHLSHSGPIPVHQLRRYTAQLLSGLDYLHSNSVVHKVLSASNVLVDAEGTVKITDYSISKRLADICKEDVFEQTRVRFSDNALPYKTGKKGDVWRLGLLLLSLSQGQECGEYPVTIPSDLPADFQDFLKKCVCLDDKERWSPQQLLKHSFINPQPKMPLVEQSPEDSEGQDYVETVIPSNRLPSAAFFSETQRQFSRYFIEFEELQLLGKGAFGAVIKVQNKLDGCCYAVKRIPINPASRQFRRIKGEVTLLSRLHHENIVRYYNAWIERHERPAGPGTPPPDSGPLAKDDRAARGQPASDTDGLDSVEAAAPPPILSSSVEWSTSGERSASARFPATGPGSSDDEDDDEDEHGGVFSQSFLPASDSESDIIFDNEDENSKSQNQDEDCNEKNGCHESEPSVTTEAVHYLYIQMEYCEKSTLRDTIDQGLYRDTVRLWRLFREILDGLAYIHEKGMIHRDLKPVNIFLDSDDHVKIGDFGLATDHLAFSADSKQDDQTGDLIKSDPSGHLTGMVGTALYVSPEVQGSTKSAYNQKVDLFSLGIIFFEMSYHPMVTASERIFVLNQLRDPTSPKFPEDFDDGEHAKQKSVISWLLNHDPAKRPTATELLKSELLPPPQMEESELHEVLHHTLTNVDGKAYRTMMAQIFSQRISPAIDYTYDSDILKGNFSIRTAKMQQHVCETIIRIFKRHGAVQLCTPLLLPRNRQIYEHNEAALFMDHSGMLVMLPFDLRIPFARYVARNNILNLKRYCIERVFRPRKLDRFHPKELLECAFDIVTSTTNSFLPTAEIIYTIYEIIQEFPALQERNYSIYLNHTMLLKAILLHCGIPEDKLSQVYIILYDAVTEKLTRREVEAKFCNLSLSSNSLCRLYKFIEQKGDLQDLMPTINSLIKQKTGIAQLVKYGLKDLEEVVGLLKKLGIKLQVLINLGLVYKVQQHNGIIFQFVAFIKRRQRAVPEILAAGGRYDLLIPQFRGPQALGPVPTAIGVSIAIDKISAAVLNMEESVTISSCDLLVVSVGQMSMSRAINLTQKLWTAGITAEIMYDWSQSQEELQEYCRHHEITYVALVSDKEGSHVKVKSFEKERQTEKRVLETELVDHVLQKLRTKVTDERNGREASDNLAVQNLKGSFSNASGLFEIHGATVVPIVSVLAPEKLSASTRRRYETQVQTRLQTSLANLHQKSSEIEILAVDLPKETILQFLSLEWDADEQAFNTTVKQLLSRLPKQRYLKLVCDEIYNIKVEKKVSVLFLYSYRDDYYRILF

Row | SMILES | IC50 [nM]
1 | O=C1COc2ccc(cc2)-n2nnc3cnc(nc32)Nc2cnn(c2)CCCN1 [Compound A3] | 1000 to 5000
2 | O=C1CCCCOc2ccc(cc2)-n2nnc3cnc(nc32)Nc2cnn(c2)CCC2CCN1CC2 [Compound A17] | 1000 to 5000
3 | O=C1CCOc2ccc(cc2)-n2nnc3cnc(nc32)Nc2ccc(cc2)CCCN1 [Compound A5] | 5000 to 10000
4 | O=C1CCCOc2ccc(cc2)-n2nnc3cnc(nc32)Nc2ccc(cc2)CCCN1 [Compound A6] | 1000 to 5000
5 | O=C1CCCn2cc(cn2)Nc2ncc3nnn(c3n2)-c2ccc(cc2)CN1 [Compound A22] | 1000 to 5000
6 | O=C1CCn2cc(cn2)-n2nnc3cnc(nc32)Nc2ccc(cc2)OCCCN1 [Compound A8] | 5000 to 10000
7 | O=C1CCCOc2ccc(cc2)-n2cnc3cnc(nc32)Nc2cnn(c2)CCCO1 [Compound A20] | 1000 to 5000
8 | O=C1CCCc2ccc(cc2)Nc2ncc3ncn(c3n2)-c2ccc(cc2)OCCCCN1 [Compound A27] | 1000 to 5000
9 | O=C1CCn2cc(cn2)-n2nnc3cnc(nc32)Nc2ccc(cc2)OCCCCN1 [Compound A9] | 5000 to 10000
10 | O=C1CCCOc2ccc(cc2)-n2cnc3cnc(nc32)Nc2cnn(c2)CCCN1 [Compound A14] | < 1000
11 | O=C1CCCCOc2ccc(cc2)Nc2ncc3nnn(c3n2)-c2cnn(c2)CCCN1 [Compound A7] | < 1000

Results, then the compound that gave them:

Row | IC50 [nM] | SMILES
12 | < 1000 | O=C1CCCn2cc(cn2)Nc2ncc3nnn(c3n2)-c2ccc(cc2)OCCCN1 [Compound A24]
13 | < 1000 | c1nn2cc1Nc1ncc3nnn(c3n1)-c1ccc(cc1)OCCNCCC2 [Compound A10]
14 | < 1000 | O=C1CCn2cc(cn2)-n2nnc3cnc(nc32)Nc2cccc(c2)OCCCN1 [Compound A11]
15 | < 1000 | O=C1CCCCOc2ccc(cc2)-n2cnc3cnc(nc32)Nc2ccc(cc2)CCCN1 [Compound A19]
16 | < 1000 | O=C1CCCCOc2ccc(cc2)-n2nnc3cnc(nc32)Nc2cnn(c2)CCCN1 [Compound A26]
17 | < 1000 | O=C1CCCn2cc(cn2)Nc2ncc3nnn(c3n2)-c2cnn(c2)CCCN1 [Compound A23]
18 | < 1000 | O=C1CCCOc2ccc(cc2)-n2nnc3cnc(nc32)Nc2cccc(c2)OCCCN1 [Compound A13]
19 | < 1000 | O=C1CCCCOc2ccc(cc2)-n2cnc3cnc(nc32)Nc2ccc(cc2)OCCCN1 [Compound A16]
20 | < 1000 | c1cc2ccc1CCNCCCCn1cc(cn1)Nc1ncc3nnn-2c3n1 [Compound A25]
21 | < 1000 | O=C1CCCOc2ccc(cc2)-n2nnc3cnc(nc32)Nc2ccc(cc2)OCCCCN1 [Compound A4]
22 | < 1000 | O=C1CCCOc2ccc(cc2)-n2cnc3cnc(nc32)Nc2ccc(cc2)CCCN1 [Compound A18]
23 | < 1000 | O=C1CCCOc2ccc(cc2)-n2nnc3cnc(nc32)Nc2cnn(c2)CCCN1 [Compound A2]
24 | < 1000 | CN1CCCCn2cc(cn2)Nc2ncc3nnn(c3n2)-c2ccc(cc2)OCCCCC1=O [Compound A12]
25 | < 1000 | O=C1CCCOc2ccc(cc2)-n2nnc3cnc(nc32)Nc2cnn(c2)CCN2CCN(CCCN1)CC2 [Compound A21]
26 | < 1000 | O=C1CCCOc2ccc(cc2)-n2cnc3cnc(nc32)Nc2ccc(cc2)OCCCN1 [Compound A15]
27 | < 1000 | O=C1CCOc2ccc(cc2)-n2nnc3cnc(nc32)Nc2cnn(c2)CCCN1 [Compound A1, 2,7-diaza-11-oxa-3H-1(5,3)-[1,2,3]triazolo[4,5-d]pyrimidina-1H-3(4,1)-pyrazola-12(1,4)-benzenacyclododecaphane-8-one]

molecular target: T1, GCN2; assay: Cellular assay of GCN2 activity (phospho-eIF2alpha immunocytochemistry in U2OS cells, tryptophanol); type: cell-based; design: endogenous in cells; host or cells: U2OS; conditions: 2 h compound, 600 μM tryptophanol 30 min
Procedure: Cellular Assay for the Determination of Compound Activities
Human U2OS cells (2000 cells/well) are seeded into 384-well plates and incubated for 20 hours.
The next day, the cells are treated with the test compounds and incubated for 2 hours. Then, tryptophanol, at a final concentration of 600 μM, is added to the cells and those are incubated for 30 minutes.
The analysis of cellular GCN2 activities is done by immunocytochemistry. Briefly, cells are fixated on the well surfaces by formaldehyde and permeabilized with Triton X-100. The primary antibody (anti-phospho-eIF2alpha (Ser51, Cell Signalling Technology, #3398) is incubated on the treated cells for 20 hours, followed by a 60 minutes incubation of the secondary antibody (anti-rabbit-IgG-Alexa 488; Molecular Probes #11008).
The analysis and quantification of phosphorylated GCN2 is done by scanning the plates in the Acumen Explorer system (TTPLabtech). The obtained data are normalised against the untreated control wells (DMSO only) and expressed as % effect values. The determination of IC50 values is done by using the Graph Pad Prism software.

Row | SMILES | IC50 [nM]
28 | O=C1CCCCOc2ccc(cc2)-n2nnc3cnc(nc32)Nc2cnn(c2)CCCN1 [Compound A26] | < 1000
